{"source": "patent US5354843A", "about": "“Flanking peptides of calcitonin and processes for their manufacture” (Ciba-Geigy Corporation, priority 1988, dated 1994)", "experiment": "isoelectric point", "assay_type": "physicochemical", "description": "FAB-MS: MH^+ 6220 (calculated molecular weight: 6220), isoelectric point: 4.2 (calculated: 4.04).", "data": [{"substance": "human procalcitonin amino-terminal flanking peptide [PCATFP]", "values": [{"measurement": "isoelectric point", "value": 4.2}]}]}
